Where two headings read alike, the source gives them in different places.
Assays:
P-gp [1] = assay: EC50 for reversing drug resistance in P388ADR cells (cell proliferation assay)
From the text: (§2) EC50 was defined as the concentration at which the modulator can reduce the IC50 of an anticancer drug by half in the P-gp-overexpressing cell lines. […] The P-gp-modulating activity of methylated catechin derivatives was further studied by measuring the EC50. […] Three P-gp-overexpressing cell lines were employed, including breast cancer cell line LCC6MDR, mouse leukemia cell line P388ADR, and human leukemia cell line K562/P-gp. The anticancer drugs tested included DOX, PTX, and VCR. All values were presented as mean ± standard error of mean. N = 3–6 independent experiments.
(§3) About 6500 cells of LCC6MDR or 10,000 cells of P388ADR or K562/P-gp were seeded to each well of 96-well plate and were then incubated at 37 °C overnight. […] Cell viability was determined using CellTiter 96 AQueous Assay (Promega, Madison, WI, USA, #G1111) as reported previously [38]. The % of cell survival, IC50 of anticancer drugs towards the cell line, and EC50 of modulators were analyzed using nonlinear regression in Prism 5.0.

P-gp [2] = molecular target: T1, P-gp (Homo sapiens, UniProt P08183); parameters: expressed in transfected cells; host or cells: MDA435/LCC6MDR (human breast cancer line, gift of Dr. Robert Clarke); settings: Cpds at 1 μM; IC50 of PTX without/with modulator; cited from earlier work
P-gp [3] = tested on: P-gp; parameters: method as in PMID 25985195, PMID 34597896; settings: cited from earlier work
P-gp [4] = assay: DOX efflux in P388ADR cells; type: cell-based, mouse; settings: 1 µM modulator; after 180 min of efflux; P388ADR preloaded with 20 µM DOX
Procedure: Figure 2 Effect of methylated catechin derivatives on intracellular DOX accumulation and DOX efflux in the P-gp-overexpressing cancer cells. […] Then, the cells were washed, and the intracellular DOX level was measured using flow cytometer. (A) LCC6MDR, (B) P388ADR, and (C) K562/P-gp. […] (D) In the efflux study, P388ADR cells were firstly incubated with 20 µM DOX for 45 min. […] At 60, 120, and 180 min, the cells were harvested, and the intracellular DOX level was measured. At 180 min, ** represents p < 0.01, and *** represents p < 0.001, both being relative to P388ADR incubated with DMSO only. […] N = 3 independent experiments. DMSO was used as a solvent control, and the highest amount used was 0.5%.
We investigated if methylated catechin derivatives could inhibit P-gp-mediated drug efflux in P-gp-overexpressing cells. […] Without a modulator, intracellularly, the DOX level was maintained at 80% and 11% after 180 min for P388 and P388ADR cells, respectively (Figure 2D). […] After 180 min of efflux, the intracellular DOX level could be maintained at 61% (p < 0.001), 59% (p < 0.01), 44 % (p < 0.001), and 37%, respectively (Figure 2D).

P-gp [5] = molecular target: T1, P-gp; assay: Vanadate-sensitive P-gp ATPase activity assay (P-gp-Glo); settings: 70 µM
Procedure: (A) Effect of EC31 on vanadate-sensitive P-gp ATPase was studied. EC31, C25, and EGCG at different concentrations (10, 50, and 70 µM) were incubated with recombinant human P-gp microsomes and MgATP with or without sodium vanadate. After stopping the reaction, the remaining ATP level was determined by measuring the luciferase-generated luminescent signal. Vanadate-inhibitable P-gp ATPase activity was determined by calculating the luminescence signal in the samples with or without sodium vanadate. […] P-gp ATPase activity caused by compounds was normalized to basal P-gp ATPase activity (human P-gp microsome treated with DMSO) and was presented as fold change. A dashed line at 1.0-fold change represented the basal P-gp ATPase activity. […] The values in this figure were presented as mean ± standard error of mean. N = 3 independent experiments.
P-gp ATPase activity was measured with P-gp-Glo assay system (Promega, #V3601) with human P-gp membrane vesicles as reported previously [32]. […] The reaction was initiated by adding MgATP and was then incubated at 37 °C for 1 h. […] The remaining ATP signal of luminescence was measured with a Clariostar microplate reader (BMG Labtech, Ortenberg, Germany). Vanadate-inhibitable P-gp ATPase activity was determined by calculating the luminescence signal in the samples with or without sodium vanadate.

MRP1 = settings: Cpds at 1 μM; IC50 of DOX without/with modulator; cited from earlier work
P-gp [6] = molecular target: T1, P-gp; assay: EC50 for reversing drug resistance in LCC6MDR cells (cell proliferation assay); settings: EC50 for Reversing MDR, LCC6MDR
From the text: as §2, §3

[7] = Pharmacokinetics of methylated catechin derivatives in plasma; type: in vivo, BALB/c mice; settings: BALB/c, mouse; for AUC(0-inf): read-out: AUC0-infinity (converted)
Procedure: Figure 4 Pharmacokinetics of methylated catechin derivatives and their effects on the PK of PTX. BALB/c mice were i.v. injected with 10 mg/kg or i.p. injected with 30 mg/kg of modulators. At 10, 30, 60, 180, 420, 840, and 1080 min postadministration, animals were sacrificed to collect their blood, and then the plasma concentration of modulator was determined using UPLC-MS/MS. The % of bioavailability of each modulator injected through i.p. injection route was calculated by comparing it to its plasma level when injected via i.v. injection. […] (E) Pharmacokinetic (PK) profiles of 4 potent methylated catechin derivatives were summarized. (F) The effect of modulators (GC51, EC31, or C25) on the PK of PTX was firstly determined through i.p. injection of modulator at 30 mg/kg 1 h prior to i.v. injection of 12 mg/kg PTX. At 10, 30, 60, 120, 240, and 420 min postadministration of PTX, animals were sacrificed. Plasma level of PTX was quantified through LC/MSMS. The dashed line indicates the corresponding EC50 of modulator in vitro for reversing PTX resistance. […] There were 3 mice at each time point. All pharmacokinetic parameters were calculated with the pharmacokinetic software Summit® PK solution. Two-tailed test was conducted for the AUC value of PTX alone and cotreatment. […] N.S. = not significant. / = not applicable.
In group 1, BALB/c mice were injected intravenously (i.v.) with 10 mg/kg of modulator, and their blood was collected at 10, 30, 60, 120, 240, and 480 min postadministration. In group 2, BALB/c mice were injected intraperitoneally (i.p.) with 30 mg/kg of modulator, and their blood was collected at 10, 30, 60, 180, 420, 840, and 1080 min postadministration.
The pharmacokinetics of PTX was studied with or without the coadministered modulator. PTX (12 mg/kg i.v.) alone was injected into the BALB/c mice. For the combination study, modulator (30 mg/kg i.p.) was injected 1 h before injecting PTX (12 mg/kg i.v.). The blood was collected at 10, 30, 60, 120, 240, and 420 min after PTX administration. Blood samples were spun at 14,000 rpm for 10 min at 4 °C to collect plasma supernatant. Plasma concentration of methylated catechin derivatives or PTX was determined through UPLC-QQQ-MS as described in Section 4.9. Pharmacokinetic parameters were analyzed with PK Solutions 2.0 (Summit Research Service, Ashland, OH, USA).

P-gp [8] = molecular target: T1, P-gp; assay: EC50 for reversing drug resistance in K562/P-gp cells (cell proliferation assay); settings: EC50 for Reversing MDR
From the text: as §2, §3

fibroblast cells = tested on: fibroblast cells; parameters: method as in PMID 25985195, PMID 34597896; settings: cited from earlier work
K562 cells = assay: Drug resistance level: IC50 of anticancer drugs in K562; type: cell-based; settings: Homo sapiens, K562, 72 h; 3 days incubation
Procedure: (§1) In the Western blot membrane, the total P-gp and β-actin expression in each lane was quantified with ImageJ software. The relative P-gp expression was an intensity ratio of P-gp band relative to the β-actin band. The relative P-gp expression of the resistant cell line relative to its respective wild type was presented as a bar chart. The plasma membrane P-gp levels of LCC6MDR and K562/P-gp relative to their wild types were determined through flow cytometry using antihuman P-gp-PE antibodies. (B) LCC6MDR and LCC6. (C) K562/P-gp and K562. (D) the drug resistance levels of three P-gp-overexpressing cell lines and their wild types were studied. The 3 pairs of cell lines were incubated with anticancer drugs paclitaxel (PTX), doxorubicin (DOX), and vincristine (VCR) for 3 days, and the % of cell survival was then determined. Their IC50 (nM) values were calculated using Prism 5.0. RF (relative fold) was a ratio of IC50 of anticancer drugs in a P-gp-overexpressing cell line relative to its respective wild type. N = 3 independent experiments. […] All cell lines were counterstained with DAPI. (E) LCC6 and LCC6MDR, (F) P388 and P338ADR, and (G) K562 and K562/P-gp. Bar = 8 µm. / = not determined.

K562/P-gp cells = assay: Drug resistance level: IC50 of anticancer drugs in K562/P-gp; type: cell-based, human
Procedure: as §1

[9] = read-out: EC50 for Reversing MDR, DOX Resistance, P388ADR, concentration that reduces IC50 of DOX by half
[10] = read-out: EC50 for Reversing MDR, PTX Resistance, P388ADR, concentration that reduces IC50 of PTX by half
[11] = DOX Resistance, concentration that reduces IC50 of DOX by half
[12] = PTX Resistance, concentration that reduces IC50 of PTX by half
[13] = DOX Resistance, K562/P-gp, concentration that reduces IC50 of DOX by half
[14] = VCR Resistance, K562, concentration that reduces IC50 of VCR by half, column head prints K562

T1 sequence (P08183 whole entry): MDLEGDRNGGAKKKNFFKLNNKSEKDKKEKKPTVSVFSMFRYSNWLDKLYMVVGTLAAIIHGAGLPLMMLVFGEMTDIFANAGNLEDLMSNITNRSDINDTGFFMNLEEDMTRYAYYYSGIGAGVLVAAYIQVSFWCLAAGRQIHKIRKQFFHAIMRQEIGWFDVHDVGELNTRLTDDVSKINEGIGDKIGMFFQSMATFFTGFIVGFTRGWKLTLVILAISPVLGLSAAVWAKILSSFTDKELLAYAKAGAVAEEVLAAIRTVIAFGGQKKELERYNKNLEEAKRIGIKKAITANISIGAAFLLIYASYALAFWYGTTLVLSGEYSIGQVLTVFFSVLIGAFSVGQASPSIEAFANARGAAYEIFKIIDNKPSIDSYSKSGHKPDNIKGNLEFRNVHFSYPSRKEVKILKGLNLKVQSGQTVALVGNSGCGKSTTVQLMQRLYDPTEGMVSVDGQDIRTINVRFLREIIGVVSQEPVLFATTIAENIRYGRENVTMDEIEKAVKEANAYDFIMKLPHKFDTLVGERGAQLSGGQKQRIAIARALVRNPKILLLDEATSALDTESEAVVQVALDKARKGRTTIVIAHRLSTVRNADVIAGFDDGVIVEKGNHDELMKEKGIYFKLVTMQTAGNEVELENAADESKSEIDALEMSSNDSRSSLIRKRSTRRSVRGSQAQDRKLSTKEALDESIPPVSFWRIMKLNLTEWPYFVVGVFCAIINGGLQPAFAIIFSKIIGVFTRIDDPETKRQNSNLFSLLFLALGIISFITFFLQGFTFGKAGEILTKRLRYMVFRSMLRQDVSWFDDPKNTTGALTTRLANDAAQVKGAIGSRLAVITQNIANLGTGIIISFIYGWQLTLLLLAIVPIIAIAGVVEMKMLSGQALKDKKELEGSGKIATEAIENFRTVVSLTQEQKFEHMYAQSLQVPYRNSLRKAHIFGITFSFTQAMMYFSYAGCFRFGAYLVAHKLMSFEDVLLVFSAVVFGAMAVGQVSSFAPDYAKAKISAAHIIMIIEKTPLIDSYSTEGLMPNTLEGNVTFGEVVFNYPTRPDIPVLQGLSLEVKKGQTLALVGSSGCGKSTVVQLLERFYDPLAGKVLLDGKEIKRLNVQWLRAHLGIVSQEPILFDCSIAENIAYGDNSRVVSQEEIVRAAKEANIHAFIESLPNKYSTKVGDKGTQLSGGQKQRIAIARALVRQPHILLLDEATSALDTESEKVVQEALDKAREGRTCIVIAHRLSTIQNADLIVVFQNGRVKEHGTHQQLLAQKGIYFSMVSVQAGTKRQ

Row | Structure (SMILES) | EC50 (P-gp [1]; [9]) [µM] | EC50 (P-gp [1]; [10]) [µM] | LCC6MDR P-gp-modulating activity RF (relative fold) (P-gp [2]) | Relative intracellular DOX level (%) (P-gp [4]) | 2008MRP1 MRP1-modulating activity RF (relative fold) (MRP1) | EC50 (P-gp [6]; [11]) [µM] | EC50 (P-gp [6]; [12]) [µM] | AUC(0-t) ([7]; ip, 30 mg/kg) [µg·h/mL] | Cmax ([7]; ip, 30 mg/kg) [µg/mL] | Tmax ([7]; ip, 30 mg/kg) [h] | half-life ([7]; ip, 30 mg/kg) [h] | AUC(0-inf) ([7]; ip, 30 mg/kg) [µg·h/mL] | AUC(0-t) ([7]; iv, 10 mg/kg) [µg·h/mL] | half-life ([7]; iv, 10 mg/kg) [h] | AUC(0-inf) ([7]; iv, 10 mg/kg) [µg·h/mL] | EC50 (P-gp [8]; [13]) [µM] | EC50 (P-gp [8]; [14]) [µM] | also measured
1 | COc1cc(OC)c2c(c1)O[C@H](c1ccc(OC)c(OC)c1)[C@@H](OC(=O)c1ccc(F)c(NC(=O)c3cc(OC)c(OC)c(OC)c3)c1)C2 [C25] | 0.26 ± 0.06 | 0.216 ± 0.01 | 84.7 | 37 | 1.2 | 0.18 ± 0.018 | 0.091 ± 0.005 | 21.2 | 5.26 | 1 | 3.12 | 21.6 | 8.87 | 0.85 | 8.89 | 0.093 ± 0.021 | 0.06 ± 0.012 | effect on plasma membrane level of P-gp (P-gp [3]): did not affect; P-gp ATPase activity, fold change relative to basal (P-gp [5]): ≤ 1.6 fold; IC50 (fibroblast cells): > 100 µM
2 | COc1cc(OC)c2c(c1)OC(c1cc(OC)c(OC)c(OC)c1)C(OC(=O)C=Cc1cc(OC)c(OC)c(OC)c1)C2 (centres unmarked) [EGC23] | […] | […] | – | – | – | – | – | […] | 2.21 | 1 | 2.45 | 7.09 | 3.19 | 0.538 | 3.21 | – | – | –
3 | COc1cc(OC)c2c(c1)O[C@H](c1cc(OC)c(OC)c(OC)c1)[C@@H](OC(=O)c1ccc(F)c(NC(=O)c3cc(OC)c(OC)c(OC)c3)c1)C2 [GC51] | 0.335 ± 0.015 | 0.496 ± 0.012 | 52.6 | 59 | 3.0 | 0.233 ± 0.036 | 0.082 ± 0.014 | 24.5 | 6.12 | 1 | 3.83 | 25.7 | 13 | 1.52 | 13.6 | 0.129 ± 0.036 | 0.077 ± 0.007 | –
4 | CC[C@]1(O)C[C@H]2CN(CCc3c([nH]c4ccccc34)[C@@](C(=O)OC)(c3cc4c(cc3OC)N(C=O)[C@H]3[C@@](O)(C(=O)OC)[C@H](OC(C)=O)[C@]5(CC)C=CCN6CC[C@]43[C@@H]65)C2)C1 [VCR, vincristine] | – | – | – | – | – | – | – | – | – | – | – | – | – | – | – | – | – | IC50 (K562 cells): 0.5 ± 0.1 nM; IC50 (K562/P-gp cells; Homo sapiens, K562, 72 h, 3 days incubation): 84.1 ± 6.4 nM; RF (relative fold) (K562/P-gp cells; IC50 in K562/P-gp relative to K562): 168.2

From publication PMC10002220, “In Vivo Reversal of P-Glycoprotein-Mediated Drug Resistance in a Breast Cancer Xenograft and in Leukemia Models Using a Novel, Potent, and Nontoxic Epicatechin EC31” (International Journal of Molecular Sciences, 2023)
